Measurements as given in US11952351B2, “Lipid particle, composition comprising lipid particle, and method for delivering activators to cell” (KABUSHIKI KAISHA TOSHIBA, priority 2018, dated 2024).

How the values were obtained:
[1] = system: human peripheral blood mononuclear cells PBMCs; test: vector DNA introduced by liposomes of Table 3, NLuc enzyme activity, PBMC; format: cell-based; settings: set of compound (2-01) and DOPE; 0.8 μg DNA/well, 48 hours, FIG. 5
Experimental: (§1) The amount of vector DNA introduced to cells by the liposomes was quantified on the basis of expression of NLuc genes on vector DNA. For evaluating the expression of NLuc, emission thereof was measured with a microtiter plate reader (infinite F200 [trademark], manufactured by Tecan). As the cells, human T-cell leukemia cell lines Jurkat (purchased from American Type Culture Collection) and human peripheral blood mononuclear cells PBMCs (purchased from LONZA Japan) were adopted. After 100 μL of the Jurkat cell suspension (1×10^6 cells/mL) and 100 μL of the PBMC cell suspension (5×10^6 cells/mL) were individually inoculated on a 96-well plate, 1 μL of each liposome solution shown in Table 1 was added so that the DNA amount might be 0.8 μg/well. Thereafter, the cells were incubated in an incubator at 37° C. for 48 hours under an atmosphere of 5% CO2, and then enzyme activity of NLuc was measured. The measurement of NLuc enzyme activity was carried out by use of NanoGlo Luciferase Assay System ([trademark], manufactured by Promega Corporation) with a luminometer according to the manual attached to the kit. The results are shown in FIG. 4 (Jurkat) and FIG. 5 (PBMC).

[2] = system: human T-cell leukemia cell lines Jurkat; test: vector DNA introduced by liposomes of Table 3, NLuc enzyme activity, Jurkat; format: cell-based; settings: DOTAP as lipid forming a membrane; 0.8 μg DNA/well, 48 hours, FIG. 4
Experimental: as §1

[3] = system: Jurkat, MCF-7 and Huh-7 cells; test: vector DNA introduced by liposomes of Table 7, NLuc enzyme activity; format: cell-based, human; settings: MCF-7, Huh-7, Jurkat; 48 hours, FIGS. 7 to 11
Experimental: The amount of vector DNA introduced to cells by the liposomes was quantified on the basis of expression of NLuc genes on vector DNA. For evaluating the expression of NLuc, emission thereof was measured with a microtiter plate reader (infinite F200 [trademark], manufactured by Tecan). As the cells, human T-cell leukemia cell lines Jurkat, human breast cancer cell lines MCF-7 and human liver cancer cell lines Huh-7 (purchased from American Type Culture Collection) were adopted. After 100 μL of the cell suspension (1×10^6 cells/mL) was inoculated on a 96-well plate, 1 μL of each liposome solution shown in Table 7 was added. Thereafter, the cells were incubated in an incubator at 37° C. for 48 hours under an atmosphere of 5% CO2, and then enzyme activity of NLuc was measured. The measurement of NLuc enzyme activity was carried out by use of NanoGlo Luciferase Assay System ([trademark], manufactured by Promega Corporation) with a luminometer according to the manual attached to the kit. FIGS. 7 to 9 show graphs in which Examples 4-1 and 4-2 are compared. […] FIGS. 10 and 11 show graphs in which Examples 4-2 and 4-3 are compared.

CCCCCC/C=C/COC(=O)CCCCCCCC(CCCCCCCC(=O)OC/C=C/CCCCCC)CN(C)CCN(C)C [compound (1-01)]
efficiency of NLuc gene expression in PBMC cells [1]: higher efficiency of NLuc gene expression in PBMC cells than the compound of the formula (1-02)

CCCCCC/C=C/COC(=O)CCCCCCCC(CCCCCCCC(=O)OC/C=C/CCCCCC)CCCCN1CCN(C)CC1 [compound (1-02)]
efficiency of NLuc gene expression in Jurkat cells [2]: higher efficiency of NLuc gene expression in Jurkat cells than the compound of the formula (1-01)

CC1=C(/C=C/C(C)=C/C=C/C(C)=C/C(=O)OCCCN(C)CCOCCOCCN(C)CCCOC(=O)/C=C(C)/C=C/C=C(C)/C=C/C2=C(C)CCCC2(C)C)C(C)(C)CCC1 [compound (2-01)]
expression efficiencies of NLuc genes (comparison in words) [3]: more easily introduced into adherent cells than into floating cells
